# Laboratory results from US8735426B2, “Vanilloid receptor ligands, pharmaceutical compositions containing them, process for making them and use thereof for treating pain and other conditions” (Gruenenthal GmbH, priority 2007, dated 2014).
# How the values were obtained:
# Format in all cases: cell-based
# vanilloid receptor (VR1) [1] = target: T1, vanilloid receptor (VR1) (Homo sapiens, UniProt Q8NER1); test: Functional FLIPR Ca2+ influx assay in CHO-K1 cells transfected with the VR1 gene, capsaicin stimulus (Pharmacological Method II)
# T1 construct: expressed in transfected cells; host or cells: CHO-K1 cells (ECACC), stably transfected
# Text: The agonistic or antagonistic action of the substances to be examined on the vanilloid receptor (VR1) can alternatively be determined by the following assay. According to this assay the Ca^2+ influx through the canal is quantified with the aid of a Ca^2+-sensitive dye (type Fluo-4, Molecular Probes, Europe BV, Leiden, Netherlands) in a fluorescent imaging plate reader (FLIPR, Molecular Devices, Sunnyvale, USA).
# Chinese hamster ovary cells (CHO-K1 cells, European Collection of Cell Cultures (ECACC) UK) are stably transfected with the VR1 gene. For carrying out functional investigations, these cells are plated on poly-D-lysine-coated, black 96-well plates with a clear bottom (BD Biosciences, Heidelberg, Germany) in a density of 25,000 cells/well. The cells are incubated overnight at 37° C. and 5% CO2 in a culture medium (Nutrient Mixture ‘am’s F12, 10% by volume of FCS (fetal calf serum), 18 μg/ml of L-proline). On the following day the cells are incubated with Fluo-4 (Fluo-4 2 μM, Pluronic F127 0.01 by volume, Molecular Probes in HBSS (Hank's buffered saline solution), Gibco Invitrogen GmbH, Karlsruhe, Germany) for 30 minutes at 37° C. The plates are then washed 3 times with HBSS buffer and, after another incubation over a period of 15 minutes at room temperature, are used in the FLIPR for Ca^2+ measurement. The Ca^2+-dependent fluorescence is measured prior to and following the addition of the substances being examined (wavelength λex=488 nm, λem=540 nm). Quantification is carried out by measuring the highest fluorescence intensity (PC, fluorescence counts) over time.
# The FLIPR protocol consists of 2 substance additions. First of all, the substances to be tested (10 μM) are pipetted onto the cells and the Ca^2+ influx is compared with the control (capsaicin 10 μM) (percentage activation based on the Ca^2+ signal following addition of 10 μM of capsaicin). Following incubation over a period of 5 minutes 100 nM of capsaicin are applied and the influx of Ca^2+ is likewise determined.
# Desensitizing agonists and antagonists led to a suppression of the Ca^2+ influx. The percentage inhibition compared with the maximum attainable inhibition using 10 μM of capsaicin is calculated.
# Based on the percentage displacement effected by different concentrations of the compounds of the general formula I to be tested, IC50 inhibition concentrations are calculated which cause 50 percent displacement of capsaicin. Conversion using the Cheng Prusoff equation gave Ki values for the test substances (Cheng, Prusoff; Bioch. Pharmacol. 22, 3099-3108, 1973).
# [2] = target: vanilloid receptor 1 (VR1/TRPV1-Receptor) (Homo sapiens, UniProt Q8NER1); test: VR1 functional assay following pH-stimulus
# vanilloid receptor (VR1) [3] = target: T1, vanilloid receptor (VR1); test: Functional FLIPR Ca2+ influx assay in CHO-K1 cells transfected with the VR1 gene, capsaicin stimulus (Pharmacological Method II); conditions: read-out: inhibition (in percent), Human Capsaicin
# [4] = target: T2, vanilloid receptor 1 (VR1/TRPV1) (Rattus norvegicus, UniProt O35433); test: Functional FLIPR Ca2+ influx assay on vanilloid receptor 1, capsaicin stimulus (Pharmacological Method I); conditions: for Ki: capsaicin stimulus
# T2 construct: The vertebral column is removed from decapitated rats; from tissue; host or cells: primary cells from rat dorsal root ganglia (DRG)
# [5] = read-out: inhibition (in percent), Human following pH-stimulus
# [6] = capsaicin, read-out: inhibition (in percent), Rat Capsaicin
# T1 sequence (Q8NER1 whole entry): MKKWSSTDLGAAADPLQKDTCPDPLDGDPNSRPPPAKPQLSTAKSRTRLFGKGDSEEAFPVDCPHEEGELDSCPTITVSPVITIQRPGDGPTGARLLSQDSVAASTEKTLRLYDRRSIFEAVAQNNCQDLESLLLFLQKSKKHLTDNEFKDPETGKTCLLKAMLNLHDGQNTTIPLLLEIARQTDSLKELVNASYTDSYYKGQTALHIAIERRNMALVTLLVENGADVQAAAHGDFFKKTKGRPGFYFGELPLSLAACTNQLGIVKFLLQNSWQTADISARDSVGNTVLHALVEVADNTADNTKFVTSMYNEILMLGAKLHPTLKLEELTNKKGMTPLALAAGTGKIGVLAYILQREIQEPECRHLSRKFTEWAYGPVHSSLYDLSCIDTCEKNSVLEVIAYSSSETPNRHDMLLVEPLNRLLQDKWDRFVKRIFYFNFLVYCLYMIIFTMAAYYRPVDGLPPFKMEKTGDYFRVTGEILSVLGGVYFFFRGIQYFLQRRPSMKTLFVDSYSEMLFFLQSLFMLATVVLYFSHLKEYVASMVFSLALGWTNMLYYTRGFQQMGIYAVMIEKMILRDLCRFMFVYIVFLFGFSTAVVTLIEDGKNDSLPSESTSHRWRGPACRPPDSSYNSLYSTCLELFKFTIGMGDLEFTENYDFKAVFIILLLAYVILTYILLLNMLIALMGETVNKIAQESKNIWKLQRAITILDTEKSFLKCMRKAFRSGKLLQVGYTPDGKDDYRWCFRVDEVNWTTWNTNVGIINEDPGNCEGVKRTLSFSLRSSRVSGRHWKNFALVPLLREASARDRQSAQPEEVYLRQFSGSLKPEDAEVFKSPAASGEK
# Chain of vanilloid receptor 1 (VR1/TRPV1-Receptor) (Q8NER1 whole entry): as above
# T2 sequence (O35433 whole entry): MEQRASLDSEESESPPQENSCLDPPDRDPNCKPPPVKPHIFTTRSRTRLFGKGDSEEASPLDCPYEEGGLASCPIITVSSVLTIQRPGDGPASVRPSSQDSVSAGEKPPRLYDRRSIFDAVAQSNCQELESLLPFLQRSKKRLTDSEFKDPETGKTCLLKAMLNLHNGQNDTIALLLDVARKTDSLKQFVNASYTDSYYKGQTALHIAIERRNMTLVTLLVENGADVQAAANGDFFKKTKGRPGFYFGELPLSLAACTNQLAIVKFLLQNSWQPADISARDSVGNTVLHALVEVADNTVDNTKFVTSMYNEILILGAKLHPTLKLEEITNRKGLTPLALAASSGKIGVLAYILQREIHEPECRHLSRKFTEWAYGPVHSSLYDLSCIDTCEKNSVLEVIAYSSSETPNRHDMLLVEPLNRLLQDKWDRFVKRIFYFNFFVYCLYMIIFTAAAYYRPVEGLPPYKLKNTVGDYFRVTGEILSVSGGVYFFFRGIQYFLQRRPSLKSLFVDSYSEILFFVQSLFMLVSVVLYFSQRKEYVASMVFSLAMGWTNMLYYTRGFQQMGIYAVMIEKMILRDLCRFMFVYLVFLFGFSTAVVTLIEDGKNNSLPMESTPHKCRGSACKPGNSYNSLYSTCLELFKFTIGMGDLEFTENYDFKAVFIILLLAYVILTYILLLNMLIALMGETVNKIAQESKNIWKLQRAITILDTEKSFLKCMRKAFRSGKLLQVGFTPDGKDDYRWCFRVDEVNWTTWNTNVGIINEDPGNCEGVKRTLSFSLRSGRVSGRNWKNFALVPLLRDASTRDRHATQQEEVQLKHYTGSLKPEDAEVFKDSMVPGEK
Ki (vanilloid receptor (VR1) [1]),IC50 [2],Ki [4],SMILES,also measured
88.7 nM,949 nM,20.6 nM,"CC1CCN(c2nc(C(F)(F)F)ccc2CNC(=O)C(c2ccc(NS(C)(=O)=O)c(F)c2)C2CCCC2)CC1 (centres unmarked) [Example 21, 2-Cyclopentyl-2-(3-fluoro-4-(methylsulfonamido)phenyl)-N-((2-(4-methylpiperidin-1-yl)-6-(trifluoromethyl)pyridin-3-yl)methyl)acetamide]",–
103 nM,–,31.3 nM,"CS(=O)(=O)Nc1ccc(C(C(=O)NCc2ccc(C(F)(F)F)nc2SC2CCCCC2)C2CCCC2)cc1F (centres unmarked) [Example 22, N-((2-(Cyclohexylthio)-6-(trifluoromethyl)pyridin-3-yl)methyl)-2-cyclopentyl-2-(3-fluoro-4-(methylsulfonamido)phenyl)acetamide]","inhibition at 1 µM [2, 5]: 0%; inhibition at 5 µM [2, 5]: 27%; inhibition at 10 µM [2, 5]: 46%"
2.4 nM,21.6 nM,–,"CC1CCN(c2nc(C(F)(F)F)ccc2CNC(=O)C(c2cccc(F)c2)c2ccc(NS(C)(=O)=O)c(F)c2)CC1 (centres unmarked) [Example 34, 2-(3-Fluoro-4-(methylsulfonamido)phenyl)-2-(3-fluorophenyl)-N-((2-(4-methylpiperidin-1-yl)-6-(trifluoromethyl)pyridin-3-yl)methyl)acetamide]",–
3.4 nM,246 nM,13.6 nM,"CC1CCN(c2nc(C(F)(F)F)ccc2CNC(=O)C(c2ccc(F)cc2)c2ccc(NS(C)(=O)=O)c(F)c2)CC1 (centres unmarked) [Example 35, 2-(3-Fluoro-4-(methylsulfonamido)phenyl)-2-(4-fluorophenyl)-N-((2-(4-methylpiperidin-1-yl)-6-(trifluoromethyl)pyridin-3-yl)methyl)acetamide]",–
42.9 nM,3140 nM,109 nM,"Cc1ccccc1C(C(=O)NCc1ccc(C(F)(F)F)nc1N1CCC(C)CC1)c1ccc(NS(C)(=O)=O)c(F)c1 (centres unmarked) [Example 40, 2-(3-Fluoro-4-(methylsulfonamido)phenyl)-N-((2-(4-methylpiperidin-1-yl)-6-(trifluoromethyl)pyridin-3-yl)methyl)-2-o-tolylacetamide]",–
0.1 nM,86.7 nM,1.8 nM,"Cc1cccc(C(C(=O)NCc2ccc(C(F)(F)F)nc2N2CCC(C)CC2)c2ccc(NS(C)(=O)=O)c(F)c2)c1 (centres unmarked) [Example 41, 2-(3-Fluoro-4-(methylsulfonamido)phenyl)-N-((2-(4-methylpiperidin-1-yl)-6-(trifluoromethyl)pyridin-3-yl)methyl)-2-m-tolylacetamide]",–
1.1 nM,31.6 nM,6.3 nM,"Cc1ccc(C(C(=O)NCc2ccc(C(F)(F)F)nc2N2CCC(C)CC2)c2ccc(NS(C)(=O)=O)c(F)c2)cc1 (centres unmarked) [Example 42, 2-(3-Fluoro-4-(methylsulfonamido)phenyl)-N-((2-(4-methylpiperidin-1-yl)-6-(trifluoromethyl)pyridin-3-yl)methyl)-2-p-tolylacetamide]",–
–,–,158 nM,"Cc1ccc(CC(C(=O)NCc2ccc(C(F)(F)F)nc2N2CCC(C)CC2)c2ccc(NS(C)(=O)=O)c(F)c2)cc1 (centres unmarked) [Example 77, 2-(3-Fluoro-4-(methylsulfonamido)phenyl)-N-((2-(4-methylpiperidin-1-yl)-6-(trifluoromethyl)pyridin-3-yl)methyl)-3-p-tolylpropanamide]",inhibition at 1 µM (vanilloid receptor (VR1) [3]): 0%; inhibition at 5 µM (vanilloid receptor (VR1) [3]): 17%

# Second part, the compound before the results:
SMILES,Ki (vanilloid receptor (VR1) [1]),IC50 [2],Ki [4],also measured
"CC1CCN(c2nc(C(F)(F)F)ccc2CNC(=O)C(c2ccc(NS(C)(=O)=O)c(F)c2)C2CCCCC2)CC1 (centres unmarked) [Example 1, 2-Cyclohexyl-2-(3-fluoro-4-(methylsulfonamido)phenyl)-N-((2-(4-methylpiperidin-1-yl)-6-(trifluoromethyl)pyridin-3-yl)methyl)acetamide]",31.1 nM,118 nM,–,–
"CS(=O)(=O)Nc1ccc(C(C(=O)NCc2ccc(C(F)(F)F)nc2SC2CCCCC2)C2CCCCC2)cc1F (centres unmarked) [Example 2, 2-Cyclohexyl-N-((2-(cyclohexylthio)-6-(trifluoromethyl)pyridin-3-yl)methyl)-2-(3-fluoro-4-(methylsulfonamido)phenyl)acetamide]",–,1390 nM,98.7 nM,inhibition at 1 µM (vanilloid receptor (VR1) [3]): 2%; inhibition at 5 µM (vanilloid receptor (VR1) [3]): 31%
"CC1CCN(c2nc(C(F)(F)F)ccc2CNC(=O)C(c2ccccc2)c2ccc(NS(C)(=O)=O)c(F)c2)CC1 (centres unmarked) [Example 3, 2-(3-Fluoro-4-(methylsulfonamido)phenyl)-N-((2-(4-methylpiperidin-1-yl)-6-(trifluoromethyl)pyridin-3-yl)methyl)-2-phenylacetamide]",1.3 nM,79 nM,–,–
"CS(=O)(=O)Nc1ccc(C(C(=O)NCc2ccc(C(F)(F)F)nc2SC2CCCCC2)c2ccccc2)cc1F (centres unmarked) [Example 4, N-((2-(Cyclohexylthio)-6-(trifluoromethyl)pyridin-3-yl)methyl)-2-(3-fluoro-4-(methylsulfonamido)phenyl)-2-phenylacetamide]",62.5 nM,1590 nM,–,–
"CC1CCN(c2nc(C(F)(F)F)ccc2CNC(=O)C(C)(C)c2ccc(NS(C)(=O)=O)c(F)c2)CC1 [Example 5, 2-(3-Fluoro-4-(methylsulfonamido)phenyl)-2-methyl-N-((2-(4-methylpiperidin-1-yl)-6-(trifluoromethyl)pyridin-3-yl)methyl)propanamide]",49 nM,886 nM,45.5 nM,–
"CC(C)(C(=O)NCc1ccc(C(F)(F)F)nc1SC1CCCCC1)c1ccc(NS(C)(=O)=O)c(F)c1 [Example 6, N-((2-(Cyclohexylthio)-6-(trifluoromethyl)pyridin-3-yl)methyl)-2-(3-fluoro-4-(methylsulfonamido)phenyl)-2-methylpropanamide]",65.7 nM,–,34.9 nM,"inhibition at 0.1 µM ([2]; @ 0.1 μM, read-out: inhibition (in percent), Human following pH-stimulus): 4%; inhibition at 1 µM [2, 5]: 20%; inhibition at 5 µM [2, 5]: 42%; inhibition at 10 µM [2, 5]: 54%"
"CCC(C)(C(=O)NCc1ccc(C(F)(F)F)nc1N1CCC(C)CC1)c1ccc(NS(C)(=O)=O)c(F)c1 (centres unmarked) [Example 7, 2-(3-Fluoro-4-(methylsulfonamido)phenyl)-2-methyl-N-((2-(4-methylpiperidin-1-yl)-6-(trifluoromethyl)pyridin-3-yl)methyl)butanamide]",124 nM,–,37.8 nM,"inhibition at 1 µM [2, 5]: 0%; inhibition at 5 µM [2, 5]: 15%; inhibition at 10 µM [2, 5]: 18%"
"CCC(C)(C(=O)NCc1ccc(C(F)(F)F)nc1SC1CCCCC1)c1ccc(NS(C)(=O)=O)c(F)c1 (centres unmarked) [Example 8, N-((2-(Cyclohexylthio)-6-(trifluoromethyl)pyridin-3-yl)methyl)-2-(3-fluoro-4-(methylsulfonamido)phenyl)-2-methylbutanamide]",–,–,–,"inhibition at 1 µM (vanilloid receptor (VR1) [3]): 0%; inhibition at 5 µM (vanilloid receptor (VR1) [3]): 80%; inhibition at 5 µM [2, 5]: 0%; inhibition at 10 µM [2, 5]: 20%; inhibition at 1 µM [4, 6]: 26%; inhibition at 5 µM [4, 6]: 99%"
"CC1CCN(c2nc(C(F)(F)F)ccc2CNC(=O)C2(c3ccc(NS(C)(=O)=O)c(F)c3)CCCC2)CC1 [Example 13, 1-(3-Fluoro-4-(methylsulfonamido)phenyl)-N-((2-(4-methylpiperidin-1-yl)-6-(trifluoromethyl)pyridin-3-yl)methyl)cyclopentanecarboxamide]",–,–,–,"inhibition at 1 µM (vanilloid receptor (VR1) [3]): 0%; inhibition at 5 µM (vanilloid receptor (VR1) [3]): 25%; inhibition at 0.1 µM ([4]; @ 0.1 μM, capsaicin, read-out: inhibition (in percent), Rat Capsaicin): 0%; inhibition at 1 µM [4, 6]: 27%; inhibition at 5 µM [4, 6]: 43%"
"CS(=O)(=O)Nc1ccc(C2(C(=O)NCc3ccc(C(F)(F)F)nc3SC3CCCCC3)CCCCC2)cc1F [Example 16, N-((2-(Cyclohexylthio)-6-(trifluoromethyl)pyridin-3-yl)methyl)-1-(3-fluoro-4-(methylsulfonamido)phenyl)cyclohexanecarboxamide]",–,–,–,"inhibition at 1 µM [4, 6]: 15%; inhibition at 5 µM [4, 6]: 69%"
